Reference: US10457709B2, “Antimicrobial peptides, their variants and uses” (priority 2015, dated 2019)
Read-outs that look alike come from different tables or passages of the source. Square brackets hold non-standard residues; d marks the D form. Peptide text beside a SMILES is read from it.

How the values were obtained:
[1] = system: C. quillermondiae clinical strains; experiment: MIC, clinical yeast strains; format: cell-based, Candida quillermondiae; set-up: unit: μg/ml; conditions: C. quillermondiae clinical yeast strain 1
In short: (§1)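 MIC = lowest concentration without visual growth after 20–24 h at 37° C. Microbroth dilution, 5.0×10^5 cfu/ml, 0.125–128 μg/ml range; MH broth for bacteria, potato dextrose broth for yeasts.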

[2] = system: Streptococcus pneumoniae clinical strains; format: cell-based; set-up: Minimum inhibitory concentration: unit: μg/ml; conditions: microdilution, Muller Hinton broth-cation adjusted, 0.02% BSA, 0.2% acetic acid
In short: as §1

[3] = system: Acinetobacter baumannii clinical strains; format: cell-based; set-up: Minimum inhibitory concentration: unit: μg/ml; conditions: microdilution, Muller Hinton broth-cation adjusted, 0.02% BSA, 0.2% acetic acid
In short: as §1

[4] = system: Enterobacter cloacae clinical strains; format: cell-based; set-up: Minimum inhibitory concentration: unit: μg/ml; conditions: microdilution, Muller Hinton broth-cation adjusted, 0.02% BSA, 0.2% acetic acid
In short: as §1

[5] = system: Proteus mirabilis clinical strains; format: cell-based; set-up: Minimum inhibitory concentration: unit: μg/ml; conditions: for Minimum inhibitory concentration: microdilution, Muller Hinton broth-cation adjusted, 0.02% BSA, 0.2% acetic acid
In short: as §1

[6] = system: Serratia marcescens clinical strains; format: cell-based; set-up: Minimum inhibitory concentration: unit: μg/ml; conditions: for Minimum inhibitory concentration: microdilution, Muller Hinton broth-cation adjusted, 0.02% BSA, 0.2% acetic acid
In short: as §1

[7] = system: Staphylococcus aureus clinical strains; format: cell-based; set-up: Minimum inhibitory concentration: unit: μg/ml; conditions: microdilution, Muller Hinton broth-cation adjusted, 0.02% BSA, 0.2% acetic acid
In short: as §1

[8] = system: Candida albicans clinical strains; experiment: MIC, clinical yeast strains; format: cell-based; set-up: unit: μg/ml
In short: as §1

[9] = system: Klebsiella pneumoniae clinical strains; format: cell-based; conditions: microdilution, Muller Hinton broth-cation adjusted, 0.02% BSA, 0.2% acetic acid
In short: as §1

[10] = system: Acinetobacter johnsonii clinical strains; format: cell-based; conditions: Acinetobacter johnsonii clinical strain 1; microdilution, Muller Hinton broth-cation adjusted, 0.02% BSA, 0.2% acetic acid
In short: as §1

[11] = system: all the bacteria and yeasts tested; format: cell-based
In short: as §1

[12] = system: Escherichia coli clinical strains; format: cell-based; conditions: microdilution, Muller Hinton broth-cation adjusted, 0.02% BSA, 0.2% acetic acid
In short: as §1

[13] = system: Pseudomonas aeruginosa clinical strains; format: cell-based; conditions: microdilution, Muller Hinton broth-cation adjusted, 0.02% BSA, 0.2% acetic acid
In short: as §1

[14] = system: C. parapsilosis clinical strains; experiment: MIC, clinical yeast strains; format: cell-based, Candida parapsilosis; set-up: unit: µg/ml
In short: as §1

[15] = system: C. glabrata clinical strains; experiment: MIC, clinical yeast strains; format: cell-based, Candida glabrata; set-up: unit: µg/ml
In short: as §1

Q: How did the Minimum inhibitory concentration [1] turn out when `CC(C)C[C@@H](NC(=O)[C@H](N)CCCNC(=N)N)C(=O)N[C@H](CCCCN)C(=O)N[C@H](Cc1c[nH]c2ccccc12)C(=O)N[C@H](Cc1ccccc1)C(=O)N[C@H](CC(C)C)C(=O)N[C@H](CC(C)C)C(=O)N[C@H](Cc1ccccc1)C(=O)N[C@H](CCCNC(=N)N)C(=O)N[C@H](CCCCN)C(=O)N[C@H](CCCNC(=N)N)C(=O)O` [Chain308D] (H-[dR][dL][dK][dW][dF][dL][dL][dF][dR][dK][dR]-OH) was run?
A: Its Minimum inhibitory concentration is 4.

Q: What about the Minimum inhibitory concentration ([2]; Streptococcus pneumoniae clinical strain 1) of the same molecule?
A: The Minimum inhibitory concentration was 8.

Q: What about the Minimum inhibitory concentration ([2]; Streptococcus pneumoniae clinical strain 2) of the same molecule?
A: Its Minimum inhibitory concentration is 4.

Q: What about the Minimum inhibitory concentration ([2]; Streptococcus pneumoniae clinical strain 3) of the same molecule?
A: Its Minimum inhibitory concentration is 8.

Q: And the Minimum inhibitory concentration ([2]; Streptococcus pneumoniae clinical strain 4)?
A: The Minimum inhibitory concentration was 2.

Q: And the Minimum inhibitory concentration ([2]; Streptococcus pneumoniae clinical strain 5)?
A: Its Minimum inhibitory concentration is 4.

Q: What about the Minimum inhibitory concentration ([3]; Acinetobacter baumannii clinical strain 1) of the same molecule?
A: Its Minimum inhibitory concentration is 4.

Q: What about the Minimum inhibitory concentration ([3]; Acinetobacter baumannii clinical strain 2) of the same molecule?
A: Its Minimum inhibitory concentration is 4.

Q: And the Minimum inhibitory concentration ([3]; Acinetobacter baumannii clinical strain 3)?
A: The Minimum inhibitory concentration was 4.

Q: And the Minimum inhibitory concentration ([3]; Acinetobacter baumannii clinical strain 4)?
A: Its Minimum inhibitory concentration is 2.

Q: What about the Minimum inhibitory concentration ([3]; Acinetobacter baumannii clinical strain 5) of the same molecule?
A: The Minimum inhibitory concentration was 2.

Q: And the Minimum inhibitory concentration ([4]; Enterobacter cloacae clinical strain 1)?
A: The Minimum inhibitory concentration was 2.

Q: And the Minimum inhibitory concentration ([4]; Enterobacter cloacae clinical strain 2)?
A: Its Minimum inhibitory concentration is 2.

Q: What about the Minimum inhibitory concentration ([4]; Enterobacter cloacae clinical strain 3) of the same molecule?
A: The Minimum inhibitory concentration was 2.

Q: And the Minimum inhibitory concentration ([4]; Enterobacter cloacae clinical strain 4)?
A: The Minimum inhibitory concentration was 2.

Q: And the Minimum inhibitory concentration ([4]; Enterobacter cloacae clinical strain 5)?
A: Its Minimum inhibitory concentration is 2.

Q: What about the Minimum inhibitory concentration ([5]; Proteus mirabilis clinical strain 1) of the same molecule?
A: Its Minimum inhibitory concentration is >128.

Q: What about the Minimum inhibitory concentration ([5]; Proteus mirabilis clinical strain 2) of the same molecule?
A: Its Minimum inhibitory concentration is 32.

Q: What about the Minimum inhibitory concentration ([5]; Proteus mirabilis clinical strain 3) of the same molecule?
A: Its Minimum inhibitory concentration is 128.

Q: And the Minimum inhibitory concentration ([5]; Proteus mirabilis clinical strain 4)?
A: Its Minimum inhibitory concentration is >128.

Q: And the Minimum inhibitory concentration ([5]; Proteus mirabilis clinical strain 5)?
A: The Minimum inhibitory concentration was >128.

Q: And the “MICs against Proteus mirabilis” value ([5]; clinical strains)?
A: Its value is 64 to 128 µg/mL.

Q: What about the Minimum inhibitory concentration ([6]; Serratia marcescens clinical strain 1) of the same molecule?
A: Its Minimum inhibitory concentration is 128.

Q: And the Minimum inhibitory concentration ([6]; Serratia marcescens clinical strain 2)?
A: Its Minimum inhibitory concentration is 128.

Q: What about the Minimum inhibitory concentration ([6]; Serratia marcescens clinical strain 3) of the same molecule?
A: Its Minimum inhibitory concentration is 64.

Q: And the Minimum inhibitory concentration ([6]; Serratia marcescens clinical strain 4)?
A: The Minimum inhibitory concentration was >128.

Q: What about the Minimum inhibitory concentration ([6]; Serratia marcescens clinical strain 5) of the same molecule?
A: The Minimum inhibitory concentration was 128.

Q: And the “MICs against Serratia marcescens” value ([6]; clinical strains)?
A: The value was 64 to 128 µg/mL.

Q: And the Minimum inhibitory concentration ([7]; Staphylococcus aureus clinical strain 1)?
A: The Minimum inhibitory concentration was 1.

Q: What about the Minimum inhibitory concentration ([7]; Staphylococcus aureus clinical strain 2) of the same molecule?
A: Its Minimum inhibitory concentration is 2.

Q: And the Minimum inhibitory concentration ([7]; Staphylococcus aureus clinical strain 3)?
A: The Minimum inhibitory concentration was 1.

Q: And the Minimum inhibitory concentration ([7]; Staphylococcus aureus clinical strain 4)?
A: Its Minimum inhibitory concentration is 2.

Q: And the Minimum inhibitory concentration ([7]; Staphylococcus aureus clinical strain 5)?
A: The Minimum inhibitory concentration was 2.

Q: What about the Minimum inhibitory concentration ([8]; Candida albicans clinical yeast strain 1) of the same molecule?
A: The Minimum inhibitory concentration was 16.

Q: What about the Minimum inhibitory concentration ([8]; Candida albicans clinical yeast strain 2) of the same molecule?
A: The Minimum inhibitory concentration was 16.

Q: And the Minimum inhibitory concentration ([8]; Candida albicans clinical yeast strain 3)?
A: Its Minimum inhibitory concentration is 16.

Q: What about the Minimum inhibitory concentration ([8]; Candida albicans clinical yeast strain 4) of the same molecule?
A: The Minimum inhibitory concentration was 16.

Q: And the Minimum inhibitory concentration ([8]; Candida albicans clinical yeast strain 5)?
A: Its Minimum inhibitory concentration is 16.

Q: What about the Minimum inhibitory concentration ([9]; Klebsiella pneumoniae clinical strain 1) of the same molecule?
A: The Minimum inhibitory concentration was 4.

Q: What about the Minimum inhibitory concentration ([9]; Klebsiella pneumoniae clinical strain 2) of the same molecule?
A: The Minimum inhibitory concentration was 4.

Q: What about the Minimum inhibitory concentration ([9]; Klebsiella pneumoniae clinical strain 3) of the same molecule?
A: Its Minimum inhibitory concentration is 4.

Q: What about the Minimum inhibitory concentration ([9]; Klebsiella pneumoniae clinical strain 4) of the same molecule?
A: The Minimum inhibitory concentration was 4.

Q: And the Minimum inhibitory concentration ([9]; Klebsiella pneumoniae clinical strain 5)?
A: Its Minimum inhibitory concentration is 4.

Q: And the Minimum inhibitory concentration [10]?
A: Its Minimum inhibitory concentration is 4.

Q: And the “MICs against all the bacteria and yeasts tested” value [11]?
A: Its value is 0.5 to 32 µg/mL.

Q: And the Minimum inhibitory concentration ([12]; Escherichia coli clinical strain 1)?
A: The Minimum inhibitory concentration was 1.

Q: And the Minimum inhibitory concentration ([12]; Escherichia coli clinical strain 2)?
A: Its Minimum inhibitory concentration is 0.5.

Q: What about the Minimum inhibitory concentration ([12]; Escherichia coli clinical strain 3) of the same molecule?
A: The Minimum inhibitory concentration was 1.

Q: And the Minimum inhibitory concentration ([12]; Escherichia coli clinical strain 4)?
A: Its Minimum inhibitory concentration is 1.

Q: And the Minimum inhibitory concentration ([12]; Escherichia coli clinical strain 5)?
A: Its Minimum inhibitory concentration is 1.

Q: And the Minimum inhibitory concentration ([13]; Pseudomonas aeruginosa clinical strain 1)?
A: The Minimum inhibitory concentration was 8.

Q: And the Minimum inhibitory concentration ([13]; Pseudomonas aeruginosa clinical strain 2)?
A: Its Minimum inhibitory concentration is 8.

Q: What about the Minimum inhibitory concentration ([13]; Pseudomonas aeruginosa clinical strain 3) of the same molecule?
A: Its Minimum inhibitory concentration is 4.

Q: What about the Minimum inhibitory concentration ([13]; Pseudomonas aeruginosa clinical strain 4) of the same molecule?
A: Its Minimum inhibitory concentration is 4.

Q: What about the Minimum inhibitory concentration ([13]; Pseudomonas aeruginosa clinical strain 5) of the same molecule?
A: The Minimum inhibitory concentration was 4.

Q: And the Minimum inhibitory concentration ([14]; C. parapsilosis clinical yeast strain 1)?
A: The Minimum inhibitory concentration was 8.

Q: What about the Minimum inhibitory concentration ([14]; C. parapsilosis clinical yeast strain 2) of the same molecule?
A: Its Minimum inhibitory concentration is 8.

Q: And the Minimum inhibitory concentration ([14]; C. parapsilosis clinical yeast strain 3)?
A: Its Minimum inhibitory concentration is 8.

Q: What about the Minimum inhibitory concentration ([14]; C. parapsilosis clinical yeast strain 4) of the same molecule?
A: The Minimum inhibitory concentration was 4.

Q: And the Minimum inhibitory concentration ([15]; C. glabrata clinical yeast strain 1)?
A: Its Minimum inhibitory concentration is 16.

Q: What about the Minimum inhibitory concentration ([15]; C. glabrata clinical yeast strain 2) of the same molecule?
A: Its Minimum inhibitory concentration is 16.

Q: And the Minimum inhibitory concentration ([15]; C. glabrata clinical yeast strain 3)?
A: The Minimum inhibitory concentration was 16.

Q: And the Minimum inhibitory concentration ([15]; C. glabrata clinical yeast strain 4)?
A: The Minimum inhibitory concentration was 16.
